# Measurements from US8273890B2 (4SC AG, priority 2007, dated 2012).
# Molecular target: T1, recombinant Plk1 protein (Homo sapiens, UniProt P53350)
# T1 construct: histidine tag (N); made in house; host or cells: SF9 insect cells
# Experiment: Plk1 kinase activity inhibition assay (33P-ATP, alpha casein substrate, flash plates)
# Format: biochemical
# Conditions: enzymatic assay, 100 nM Li-ATP, 80 minutes at 30° C.
# Description: The inhibition of Plk1 kinase activity can be measured using recombinant Plk1 protein expressed as an N-terminally histidine-tagged protein in SF9 insect cells and alpha casein as substrate. The Plk1 assay is run in 96 well plates by incubating 50 to 100 ng per well recombinant Plk1, 500 ng per well alpha casein (Sigma, # C-6780) as substrate, 10 μl of compound of invention (test compounds were dissolved as 20 mM solutions in dimethylsulfoxide (DMSO) and subsequently diluted), and 100 nM Li-ATP (including ^33P-ATP) in 100 μl of reaction buffer ([…] HEPES, pH 7.5; 3 mM MgCl2; 3 mM MnCl2; 3 μM Na-Orthovanadat; 1 mM DTT; 1 μg/ml PEG 8000) for 80 minutes at 30° C. The reactions are terminated by adding 100 μl stopping buffer (2% H3PO4 for 5 minutes) and are washed 3 times with washing solution (0.9% NaCl). Determining ^33P incorporated into the protein substrate alpha casein, the detection is based on the adhesion of the phosphorylated protein to the surface of scintillator-coated flash plates (Perkin Elmer, USA; #SMP-200). Phosphorylation of alpha casein is measured by counting the radioactivity bound to the plate for 60 sec. using a plate reader (Perkin Elmer, USA; Wallac Microbeta). By this method, the IC50 value of the Plk1 inhibition is determined as described above.
# T1 sequence (P53350 whole entry): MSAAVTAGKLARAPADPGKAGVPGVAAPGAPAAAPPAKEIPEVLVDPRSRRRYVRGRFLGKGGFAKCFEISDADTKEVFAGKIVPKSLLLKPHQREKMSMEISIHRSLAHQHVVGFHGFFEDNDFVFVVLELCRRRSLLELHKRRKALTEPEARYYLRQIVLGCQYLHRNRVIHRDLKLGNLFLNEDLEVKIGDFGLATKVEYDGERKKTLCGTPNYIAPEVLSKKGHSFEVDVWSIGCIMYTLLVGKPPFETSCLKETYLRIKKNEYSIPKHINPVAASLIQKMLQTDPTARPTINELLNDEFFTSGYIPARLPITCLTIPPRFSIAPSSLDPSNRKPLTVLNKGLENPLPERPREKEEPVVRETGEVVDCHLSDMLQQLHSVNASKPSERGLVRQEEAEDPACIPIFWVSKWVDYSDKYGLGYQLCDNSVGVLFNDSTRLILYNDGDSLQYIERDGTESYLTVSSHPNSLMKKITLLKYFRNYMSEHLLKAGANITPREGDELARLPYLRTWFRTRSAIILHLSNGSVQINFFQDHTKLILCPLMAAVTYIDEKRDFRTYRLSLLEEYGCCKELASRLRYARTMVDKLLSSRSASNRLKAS
row,IC50 [nM],SMILES
1,10 to 100,"C[C@@H](Oc1cc(-n2cnc3cnc(CN4CCN(CC(=O)N(C)c5ccccc5)CC4)cc32)sc1C(N)=O)c1ccccc1C(F)(F)F [Example 86, 5-{6-[(4-{2-[methyl(phenyl)amino]-2-oxoethyl}piperazin-1-yl)methyl]-1H-imidazo[4,5-c]pyridin-1-yl}-3-{(1R)-1-[2-(trifluoromethyl)phenyl]ethoxy}thiophene-2-carboxamide]"
2,10 to 100,"CCC(Oc1cc(-n2cnc3cnc(CN4CCCN(C)CC4)cc32)sc1C(N)=O)c1ccccc1Cl (stereo not drawn) [Example 141, 3-{[1-(2-chlorophenyl)propyl]oxy}-5-{6-[(4-methyl-1,4-diazepan-1-yl)methyl]-1H-imidazo[4,5-c]pyridin-1-yl}thiophene-2-carboxamide]"
3,10 to 100,"C[C@@H](Oc1cc(-n2cnc3cnc(CN4CCN(CCN(C)C)CC4)cc32)sc1C(N)=O)c1ccccc1Cl [Example 132, 3-[(1R)-1-(2-chlorophenyl)ethoxy]-5-[6-({4-[2-(dimethylamino)ethyl]piperazin-1-yl}methyl)-1H-imidazo[4,5-c]pyridin-1-yl]thiophene-2-carboxamide]"
4,< 10,"C[C@@H](Oc1cc(-n2cnc3cnc(CN4CCN(CCO)CC4)cc32)sc1C(N)=O)c1ccccc1Cl [Example 127, 3-[(1R)-1-(2-chlorophenyl)ethoxy]-5-(6-{[4-(2-hydroxyethyl)piperazin-1-yl]methyl}-1H-imidazo[4,5-c]pyridin-1-yl)thiophene-2-carboxamide]"
5,< 10,"CC(Oc1cc(-n2cnc3cnc(CO)cc32)sc1C(N)=O)c1ccc(C#N)cc1Cl (stereo not drawn) [Example 123, 3-[1-(2-chloro-4-cyanophenyl)ethoxy]-5-[6-(hydroxymethyl)-1H-imidazo[4,5-c]pyridin-1-yl]thiophene-2-carboxamide]"
6,1000 to 10000,"CC(Oc1cc(-n2cnc3cc(CN4CCN(C(=O)c5ccccc5)CC4)ncc32)sc1C(N)=O)c1ccccc1F (stereo not drawn) [Example 160, 5-{6-[(4-benzoylpiperazin-1-yl)methyl]3H-imidazo[4,5-c]pyridin-3-yl}-3-[-1-(2-fluorophenyl)ethoxy]thiophene-2-carboxamide]"
7,< 10,"C[C@@H](Oc1cc(-n2cnc3cnc(CN4CCC(N(C)C)C4)cc32)sc1C(N)=O)c1ccccc1C(F)(F)F (stereo partly drawn) [Example 144, 5-(6-{[3-(dimethylamino)pyrrolidin-1-yl]methyl}-1H-imidazo[4,5-c]pyridin-1-yl)-3-{(1R)-1-[2-(trifluoromethyl)phenyl]ethoxy}thiophene-2-carboxamide]"
8,100 to 1000,"C[C@@H](Oc1cc(-n2cnc3cnc(CN4CCN(CC5CCN(C)CC5)CC4)cc32)sc1C(N)=O)c1ccccc1C(F)(F)F [Example 85, 5-[6-({4-[(1-methylpiperidin-4-yl)methyl]piperazin-1-yl}methyl)-1H-imidazo[4,5-c]pyridin-1-yl]-3-{(1R)-1-[2-(trifluoromethyl)phenyl]ethoxy}thiophene-2-carboxamide]"
9,< 10,CCC(Oc1cc(-n2cnc3cnc(CN4CCN(CC)CC4)cc32)sc1C(N)=O)c1ccccc1Cl (stereo not drawn) [Example 142]
10,1000 to 10000,"CC(Oc1cc(-n2cnc3cc(CN4CCS(=O)(=O)CC4)ncc32)sc1C(N)=O)c1ccccc1F (stereo not drawn) [Example 161, 5-{6-[(1,1-dioxidothiomorpholin-4-yl)methyl]-3H-imidazo[4,5-c]pyridin-3-yl}-3-[-1-(2-fluorophenyl)ethoxy]thiophene-2-carboxamide]"
11,10 to 100,"C[C@@H](Oc1cc(-n2cnc3cnc(CN4CCN(CC(=O)N5CCCC5)CC4)cc32)sc1C(N)=O)c1ccccc1C(F)(F)F [Example 145, 5-(6-{[4-(2-oxo-2-pyrrolidin-1-ylethyl)piperazin-1-yl]methyl}-1H-imidazo[4,5-c]pyridin-1-yl)-3-{(1R)-1-[2-(trifluoromethyl)phenyl]ethoxy}thiophene-2-carboxamide]"
12,10 to 100,"C[C@@H](Oc1cc(-n2cnc3cnc(CN4CCN(c5cnccn5)CC4)cc32)sc1C(N)=O)c1ccccc1C(F)(F)F [Example 84, 5-{6-[(4-pyrazin-2-ylpiperazin-1-yl)methyl]-1H-imidazo[4,5-c]pyridin-1-yl}-3-{(1R)-1-[2-(trifluoromethyl)phenyl]ethoxy}thiophene-2-carboxamide]"

# Further lines, the molecule ahead of its results:
row,SMILES,IC50 [nM]
1,"C[C@@H](Oc1cc(-n2cnc3cnc(CO)cc32)sc1C(N)=O)c1ccccc1C(F)(F)F [Example 25, 5-[6-(hydroxymethyl)-1H-imidazo[4,5-c]pyridin-1-yl]-3-{(1R)-1-[2-(trifluoromethyl)phenyl]ethoxy}thiophene-2-carboxamide]",< 10
2,"C[C@@H](Oc1cc(-n2cnc3cnc(CN4CCOCC4)cc32)sc1C(N)=O)c1ccccc1C(F)(F)F [Example 62, 5-[6-(morpholin-4-ylmethyl)-1H-imidazo[4,5-c]pyridin-1-yl]-3-{(1R)-1-[2-(trifluoromethyl)phenyl]ethoxy}thiophene-2-carboxamide]",10 to 100
3,"COCCN1CCN(Cc2cc3c(cn2)ncn3-c2cc(O[C@H](C)c3ccccc3C(F)(F)F)c(C(N)=O)s2)CC1 [Example 69, 5-(6-{[4-(2-methoxyethyl)piperazin-1-yl]methyl}-1H-imidazo[4,5-c]pyridin-1-yl)-3-{(1R)-1-[2-(trifluoromethyl)phenyl]ethoxy}thiophene-2-carboxamide]",< 10
4,"C[C@@H](Oc1cc(-n2cnc3cnc(CN4CCN(C(=O)N(C)C)CC4)cc32)sc1C(N)=O)c1ccccc1C(F)(F)F [Example 68, 4-{[1-(5-carbamoyl-4-{(1R)-1-[2-(trifluoromethyl)phenyl]ethoxy}-2-thienyl)-1H-imidazo[4,5-c]pyridin-6-yl]methyl}-N,N-dimethylpiperazine-1-carboxamide]",< 10
5,"C[C@H](Oc1cc(-n2cnc3cnc(CO)cc32)sc1C(N)=O)c1ccccc1C(F)(F)F [Example 46, 5-[6-(hydroxymethyl)-1H-imidazo[4,5-c]pyridin-1-yl]-3-{(1S)-1-[2-(trifluoromethyl)phenyl]ethoxy}thiophene-2-carboxamide]",100 to 1000
6,"C[C@@H](Oc1cc(-n2cnc3cnc(CN4CCN(CCN5CCOCC5)CC4)cc32)sc1C(N)=O)c1ccccc1C(F)(F)F [Example 80, 5-(6-{[4-(2-morpholin-4-ylethyl)piperazin-1-yl]methyl}-1H-imidazo[4,5-c]pyridin-1-yl)-3-{(1R)-1-[2-(trifluoromethyl)phenyl]ethoxy}thiophene-2-carboxamide]",10 to 100
7,"C[C@@H](Oc1cc(-n2cnc3cnc(CO)cc32)sc1C(N)=O)c1ccccc1Br [Example 52, 3-[(1R)-1-(2-bromophenyl)ethoxy]-5-[6-(hydroxymethyl)-1H-imidazo[4,5-c]pyridin-1-yl]thiophene-2-carboxamide]",< 10
8,"C[C@@H](Oc1cc(-n2cnc3cnc(CN4CCN(S(=O)(=O)N(C)C)CC4)cc32)sc1C(N)=O)c1ccccc1C(F)(F)F [Example 71, 5-[6-({4-[(dimethylamino)sulfonyl]piperazin-1-yl}methyl)-1H-imidazo[4,5-c]pyridin-1-yl]-3-{(1R)-1-[2-(trifluoromethyl)phenyl]ethoxy}thiophene-2-carboxamide]",10 to 100
9,"NC(=O)c1sc(-n2cnc3ccncc32)cc1OCc1ccc(F)cc1C(F)(F)F [Example 41, 3-{[4-fluoro-2-(trifluoromethyl)benzyl]oxy}-5-(3H-imidazo[4,5-c]pyridin-3-yl)thiophene-2-carboxamide]",10 to 100
10,"C[C@@H](Oc1cc(-n2cnc3cnc(CN4CCN(S(=O)(=O)c5ccccc5)CC4)cc32)sc1C(N)=O)c1ccccc1C(F)(F)F [Example 58, 5-(6-{[4-(phenylsulfonyl)piperazin-1-yl]methyl}-1H-imidazo[4,5-c]pyridin-1-yl)-3-{(1R)-1-[2-(trifluoromethyl)phenyl]ethoxy}thiophene-2-carboxamide]",10 to 100
11,"C[C@H](Oc1cc(-n2cnc3cnc(CN4CCN(C)CC4)cc32)sc1C(N)=O)c1ccccc1C(F)(F)F [Example 48, 5-{6-[(4-methylpiperazin-1-yl)methyl]-1H-imidazo[4,5-c]pyridin-1-yl}-3-{(1S)-1-[2-(trifluoromethyl)phenyl]ethoxy}thiophene-2-carboxamide]",10 to 100
12,"NC(=O)c1sc(-n2cnc3cnccc32)cc1OCc1ccccc1OC(F)F [Example 42, 3-{[2-(difluoromethoxy)benzyl]oxy}-5-(1H-imidazo[4,5-c]pyridin-1-yl)thiophene-2-carboxamide]",< 10
13,"COc1cc2c(ncn2-c2cc(OCc3ccccc3C(F)(F)F)c(C(N)=O)s2)nc1OC [Example 21A, 5-(5,6-Dimethoxy-1H-imidazo[4,5-b]pyridin-1-yl)-3-{[2-(trifluoromethyl)benzyl]oxy}thiophene-2-carboxamide]",100 to 1000
14,"C[C@@H](Oc1cc(-n2cnc3cnc(CN4CCC(N(C)C)CC4)cc32)sc1C(N)=O)c1ccccc1C(F)(F)F [Example 65, 5-(6-{[4-(dimethylamino)piperidin-1-yl]methyl}-1H-imidazo[4,5-c]pyridin-1-yl)-3-{(1R)-1-[2-(trifluoromethyl)phenyl]ethoxy}thiophene-2-carboxamide]",< 10
15,"CC1CN(Cc2cc3c(cn2)ncn3-c2cc(O[C@H](C)c3ccccc3C(F)(F)F)c(C(N)=O)s2)C(C)CN1 (stereo partly drawn) [Example 83, 5-{6-[(2,5-dimethylpiperazin-1-yl)methyl]-1H-imidazo[4,5-c]pyridin-1-yl}-3-{(1R)-1-[2-(trifluoromethyl)phenyl]ethoxy}thiophene-2-carboxamide]",10 to 100
